Measured values reported in US10112918B2, “15-oxospiramilactone derivatives, preparation method and uses thereof” (Kunming Institute of Botany, The Chinese Academy of Sciences, priority 2013, dated 2018).
Read-outs that look alike come from different tables or passages of the source.

Assays:
Type in all cases: cell-based
[1] = tested on: HL-60 (human promyelocytic leukemia cells); test: MTT inhibition of tumor cell growth, HL-60; conditions: Homo sapiens, HL-60, 48 h
Experimental: (§1) 1. Inoculating cells: the culture medium DMEM or RMPI1640 containing 10% fetal bovine serum was used to prepare a single cell suspension, and the cell suspension was inoculated to a 96-well plate at 5000-10000 cells per well (100 μl for each well); Adherent cells were inoculated and cultured for 12 h in advance. HL-60 (human promyelocytic leukemia cells), SMMC-7721 (human hepatoma cells), A-549 (Human lung adenocarcinoma cells), MCF-7 (human breast cancer cells), SW-480 (human colon cancer cells) were purchased from the Cell Bank of the Chinese Academy of Sciences, Shanghai.
(§2) 2. The solution of the compound to be tested (40 μM for primary screening; 5 concentrations were set for gradient re-screening for the compounds which achieve about 50% inhibition of tumor cell growth at 40 μM) was added, the final volume of each well was 200 μl, and triplicate wells were set for each test.
(§3) 3. Coloration: After culturing at 37° C. for 48 h, MTT solution (20 μl) was added to each well. After incubation for another 4 h, the culture was stopped. The supernatant in each well was pipetted and discarded, and 200 μl SDS solution (10%) was added to each well. Incubation was performed overnight (at 37° C.), to completely dissolve the crystal.
(§4) 4. Colorimetric assay: ELISA Reader (Bio-Rad 680) was used to obtain the light absorption for each well at a wavelength of 595 nm, the results were recorded. A cell growth curve was plotted with the concentration as abscissa and the cell survival percentage as ordinate. The two-point method (Reed and Muench method) was used to calculate the IC50 of the compound.

[2] = tested on: Wnt signaling pathway (Top-Flash reporter gene); test: Top-Flash Wnt reporter gene assay in HEK293T cells with Wnt3a conditioned medium; conditions: Homo sapiens, HEK-293T, 6 h, 6 h
Experimental: HEK293T cells were cultured in DMEM containing 10% fetal bovine serum (Invitrogen) at 37° C., 5% CO2. The cells were passaged every other day. The density was retained at 70˜80% during passage. L cell line (CRL-2647, purchased from the gene bank of ATCC, the US) and the control cell line (CRL-2648, purchased from ATCC, US), which stably secreted mouse Wnt3a protein, were cultured in DMEM containing 50 ug/ml G418 and 10% fetal bovine serum, at 37° C., 5% CO2. When the cells grew to a density of about 70%, the medium was replaced with DMEM containing 10% fetal bovine serum. After continuous culture for 4 days, the culture was collected and centrifuged, and the supernatant was kept so that the Wnt conditioned medium was obtained. After titration assay, the conditioned medium was quick-frozen in liquid nitrogen, and placed at −80° C. for long-term storage, so that the titer was kept unchanged.
The cells were seeded to a 48-well plate at a density of […] cells per well, and transfected 20 h later. The reagents for plasmid transfection were calculated based on the amount in each well of the 48-well plate as following: the total amount of plasmid was 125 ng/well; the plasmid was first added to a serum-free medium (25 μL/well) and mixed well; PLUS reagent (Invitrogen) was then added in an amount of 0.5 μL/well and mixed well, then stood for 15 min; Lipofectamine (Invitrogen) liposome was added in an amount of 0.5 μL/well to serum-free DMEM medium (25 μL/well), and then mixed with the solution containing the plasmid and the PLUS, and stood for 15 min. The cells were cultured in serum-free DMEM medium (100 μL/well), and the final mixture of plasmid, PLUS and Lipofectamine were added to the cells. After incubation for 3 h, the transfection was stopped by the medium containing 10% fetal bovine serum (200 μL/well).
The HEK293T cells used for activity assay of the report gene were transfected by the method as shown in 2). Activity assay of Wnt reporter gene: the amount of plasmid for transfection was 5 ng/well for TOP-flash and 5 ng/well for GFP plasmid as internal standard, with lacZ added to reach a total amount of 125 ng/well. […] After treating for 6 h, Boehringer Mannheim Luci-ferase Assay Kit was used to lyse cells (200 μL/well). 50 μL from each well was pipetted into a 96-well plate. The indensity of GFP protein in the cell lysate was measured by fluorimeter FL600 (BIO-TEK Inc. Winooski, Vt.), and taken as internal standard for cell transfection efficiency. 10 μL substrate of luciferase was then added to each well, and the activity of luciferase was measured by Micro Lumate Plus (Perkin Elmer Inc. Wellesley, Mass.) luminometer. Finally, GFP indensity was used as internal standard to calibrate the activity of luciferase, i.e. the activity of Wnt reporter gene.
Calculation of IC50 (taking the calculation of IC50 of the Wnt signaling pathway for example): background (the activity as measured in the groups treated with a conditioned medium containing DMSO only) was subtracted from the reporter gene activity as measured in the groups treated by Wnt3a conditioned medium with or without the compound to be tested at different concentrations; and the obtained value was defined as the activity of the reporter gene induced by Wnt or the residual activity of the reporter gene after adding the compound to be tested. The residual activity was normalized by the activity induced by Wnt to get the relative residual activity. Then combine with the concentrations of the compound to be tested to plot a linear graph, and a dose-effect curve was fitted based on 4-parameter logistic fit. IC50 of the Wnt signaling pathway is determined as the concentration at which the relative residual activity is 0.5.

[3] = tested on: A-549 (Human lung adenocarcinoma cells); test: MTT inhibition of tumor cell growth, A-549; conditions: Homo sapiens, A549, 48 h
Experimental: as §1, §2, §3, §4

[4] = tested on: SW-480 (human colon cancer cells); test: MTT inhibition of tumor cell growth, SW-480; conditions: Homo sapiens, SW480, 48 h
Experimental: as §1, §2, §3, §4

[5] = tested on: MCF-7 (human breast cancer cells); test: MTT inhibition of tumor cell growth, MCF-7; conditions: Homo sapiens, MCF7, 48 h
Experimental: as §1, §2, §3, §4

[6] = tested on: SMMC-7721 (human hepatoma cells); test: MTT inhibition of tumor cell growth, SMMC-7721; conditions: Homo sapiens, SMMC-7721, 48 h
Experimental: as §1, §2, §3, §4

[7] = Table 1, 7-hydroxy derivatives of S-3
[8] = Table 7 (second), derivatives modified on 7-hydroxyl of S-3, HEK293T, Wnt3a conditioned medium, read-out: IC50 (μM), inhibitory activity on the Wnt signaling pathway
[9] = Table 1, 7-hydroxy derivatives of S-3, read-out: IC50 SW-480
[10] = Table 2, derivatives having potential Michael reaction acceptor
[11] = Table 9, HEK293T, Wnt3a conditioned medium, read-out: IC50(μM), inhibitory activity on the Wnt signaling pathway
[12] = Table 7 (first), alkaloid derivatives

| Structure (SMILES) | IC50 [1, 7] [µM] | IC50 [2, 8] [µM] | IC50 [3, 7] [µM] | IC50 [4, 9] [µM] | IC50 [5, 7] [µM] | IC50 [6, 7] [µM] | further results |
| --- | --- | --- | --- | --- | --- | --- | --- |
| C=C1C(=O)[C@]23CC[C@H]1CC2[C@@]12CCC[C@@](C)(COC1=O)C2[C@H](SC)C3=O (some centres unmarked) [Compound 12] | – | – | – | – | – | – | IC50 [1, 10]: 4.69 µM; IC50 [2, 11]: 19.8 ± 1.34 µM; IC50 [3, 10]: 3.14 µM; IC50 ([4]; Table 2, derivatives having potential Michael reaction acceptor, read-out: IC50 SW-480): 3.71 µM; IC50 [5, 10]: 4.83 µM; IC50 [6, 10]: 2.41 µM |
| C=C1C(=O)[C@]23CC[C@H]1CC2[C@@]12CCC[C@@](C)(C(=O)N4CCO[C@H]41)C2C[C@H]3O (some centres unmarked) [Compound 78] | – | – | – | – | – | – | IC50 [1, 12]: 2.73 µM; IC50 ([2]; Table 11, HEK293T, Wnt3a conditioned medium, read-out: IC50 (μM), inhibitory activity on the Wnt signaling pathway): 28.7 ± 0.97 µM; IC50 [3, 12]: 3.09 µM; IC50 ([4]; Table 7 (first), alkaloid derivatives, read-out: IC50 SW-480): 2.81 µM; IC50 [5, 12]: 1.12 µM; IC50 [6, 12]: 2.63 µM |
| C=C1C(=O)[C@@]23CC[C@@H](CC2[C@@]24CCC[C@@](C)(COC2)C14)C1(CO1)C3=O (some centres unmarked) [Compound 29] | – | – | – | – | – | – | IC50 [2, 11]: > 60 µM |
| C=C1C(=O)C23CC[C@@H](CC2[C@@]24CCC[C@@](C)(COC2)C14)C(=C)[C@@H]3O (some centres unmarked) [Compound 33] | – | – | – | – | – | – | IC50 ([2]; read-out: IC50 (μM), inhibitory activity on the Wnt signaling pathway): 12.1 ± 1.25 µM |

More lines, main results first:

| IC50 [1, 7] [µM] | IC50 [2, 8] [µM] | IC50 [3, 7] [µM] | IC50 [4, 9] [µM] | IC50 [5, 7] [µM] | IC50 [6, 7] [µM] | Structure (SMILES) | further results |
| --- | --- | --- | --- | --- | --- | --- | --- |
| 6.63 | > 60 | 6.69 | 18.4 | 9.05 | 23.4 | C=C1C(=O)[C@]23CC[C@H]1CC2[C@@]12CCC[C@@](C)(COC1=O)C2C[C@H]3S(=O)(=O)c1ccccc1[N+](=O)[O-] (some centres unmarked) [Compound 1u] | – |
| 0.89 | 19 ± 1.61 | 1.73 | 2.19 | 1.97 | 2.65 | C=C1C(=O)C23CC[C@H]1CC2[C@@]12CCC[C@@](C)(COC1=O)C2C[C@H]3OC(=O)c1ccc(C(F)(F)F)cc1 (some centres unmarked) [Compound 1m] | – |
| 3.36 | 14.4 ± 2.28 | 2.94 | 1.91 | 3.19 | 3.64 | C=C1C(=O)[C@]23CC[C@H]1CC2[C@@]12CCC[C@@](C)(COC1=O)C2C[C@H]3OS(=O)(=O)c1ccc(Cl)cc1 (some centres unmarked) [Compound 1t] | – |
